From patent publication US20260176289A1, “SMALL MOLECULE INHIBITORS OF KRAS PROTEINS” (Merck Sharp & Dohme LLC, priority 2022, published 2026)
Like-named read-outs stand apart in the source and are kept apart here.

Columns and labels:
KRAS-WT = KRAS-WT (Homo sapiens, UniProt P01116); test: SOS-catalyzed nucleotide exchange assay (Procedure A, TR-FRET), KRAS-WT; type: biochemical; details: nucleotide exchange, read-out: KRAS WT GNE IC50
Procedure, shortened: (§1)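 TR-FRET 520/495 nm ratio read after SOS-driven exchange of Bodipy-GDP for unlabeled GTP (3 mM) on biotinylated RAS bound to Tb-streptavidin. There was a 60 min compound preincubation, RT. Final RAS/SOS and reaction times: G12C 3 nM/40 nM; WT 1 nM/40 nM; NRAS 1.25 nM/40 nM, each 60 min. G12V was 1.25 nM/160 nM, 90 min.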

[1] = molecular target: KRAS-G12C (C51S/C80L/C118S) (Homo sapiens, UniProt P01116, C118S/C51S/C80L/G12C); test: SOS-catalyzed nucleotide exchange assay (Procedure A, TR-FRET), KRAS-G12C; type: biochemical; details: nucleotide exchange, Procedure A; read-out: KRAS G12C GNE IC50
Procedure, shortened: as §1

KRAS-G12D = KRAS-G12D (Homo sapiens, UniProt P01116, G12D); test: SOS-catalyzed nucleotide exchange assay (Procedure A, TR-FRET), KRAS-G12D; type: biochemical; details: nucleotide exchange, read-out: KRAS G12D GNE IC50
Procedure, shortened: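 Signal ratio (520/495 nm, excitation 340 nm) reports Bodipy-GDP retention on biotinylated RAS after SOS-catalyzed exchange with 3 mM GTP. SOS was 40 nM, except 160 nM for G12V. Room-temperature exchange lasted 60 min (90 min for G12V), following a 60 min compound preincubation.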

KRAS-G12V = KRAS-G12V (Homo sapiens, UniProt P01116, G12V); test: SOS-catalyzed nucleotide exchange assay (Procedure A, TR-FRET), KRAS-G12V; type: biochemical; details: nucleotide exchange, read-out: KRAS G12V GNE IC50
Procedure, shortened: as §1

KRAS-G13D = KRAS-G13D (Homo sapiens, UniProt P01116, G13D); test: SOS-catalyzed nucleotide exchange assay (Procedure A, TR-FRET), KRAS-G13D; type: biochemical; details: nucleotide exchange, Procedure A; read-out: KRAS G13D GNE IC50
MKN-1 cells = test: Cellular phospho-ERK assay, MKN-1 cells (amplified wild-type KRAS); type: cell-based; details: Homo sapiens, read-out: MKN1 pERK IC50
Procedure, shortened: (§2)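 Cells were seeded overnight, then treated 2 h at 37° C with compound in a 10-point, 1:3 titration from 30 μM top final concentration. Lysates were assayed by AlphaLISA SureFire Ultra for p-ERK and total ERK. IC50 came from a 4-parameter logistic fit of the p-ERK/total ERK ratio.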

PANC08.13 cells = test: Cellular phospho-ERK assay, PANC08.13 cells (homozygous KRAS-G12D); type: cell-based; details: Homo sapiens, read-out: PANC-08.13 pERK IC50
Procedure, shortened: as §2

AsPC-1 cells = test: Cellular phospho-ERK assay, AsPC-1 cells (homozygous KRAS-G12D); type: cell-based; details: Homo sapiens, ASPC1, 2 h, read-out: AsPC1 pERK IC50
Procedure, shortened: as §2

SW620 cells = test: Cellular phospho-ERK assay, SW620 cells (homozygous KRAS-G12V); type: cell-based; details: Homo sapiens, read-out: SW620 pERK IC50
Procedure, shortened: as §2

[2] = amplified wild-type KRAS, 2 hours

Chain of KRAS-G12V (P01116 with tags, fused parts or gaps isoform P01116-2 G12V): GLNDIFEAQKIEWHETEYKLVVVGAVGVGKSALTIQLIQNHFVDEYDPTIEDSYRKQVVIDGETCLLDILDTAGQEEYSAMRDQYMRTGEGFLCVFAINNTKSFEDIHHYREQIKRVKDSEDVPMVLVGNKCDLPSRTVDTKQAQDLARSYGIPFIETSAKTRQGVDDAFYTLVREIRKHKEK
Chain of KRAS-G12C (C51S/C80L/C118S) (P01116 with tags, fused parts or gaps isoform P01116-2 G12C/C51S/C80L/C118S): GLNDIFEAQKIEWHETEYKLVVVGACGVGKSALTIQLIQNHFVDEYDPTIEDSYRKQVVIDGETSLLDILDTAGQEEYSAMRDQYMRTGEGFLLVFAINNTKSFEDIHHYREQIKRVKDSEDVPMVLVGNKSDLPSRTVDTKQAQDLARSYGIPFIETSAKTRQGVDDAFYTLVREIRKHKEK
Chain of KRAS-G12D (P01116 with tags, fused parts or gaps isoform P01116-2 G12D): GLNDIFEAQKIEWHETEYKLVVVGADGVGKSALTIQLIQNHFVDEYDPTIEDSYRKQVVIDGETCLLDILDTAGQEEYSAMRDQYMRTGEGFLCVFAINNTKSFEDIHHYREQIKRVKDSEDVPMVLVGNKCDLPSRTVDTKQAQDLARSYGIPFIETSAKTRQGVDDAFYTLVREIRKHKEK
Chain of KRAS-G13D (P01116 with tags, fused parts or gaps isoform P01116-2 G13D): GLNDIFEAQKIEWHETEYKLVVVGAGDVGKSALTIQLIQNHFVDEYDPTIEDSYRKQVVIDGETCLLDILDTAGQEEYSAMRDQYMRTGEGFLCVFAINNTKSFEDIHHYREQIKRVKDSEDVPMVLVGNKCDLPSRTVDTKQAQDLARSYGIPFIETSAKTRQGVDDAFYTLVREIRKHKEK
Chain of KRAS-WT (P01116 with tags, fused parts or gaps isoform P01116-2): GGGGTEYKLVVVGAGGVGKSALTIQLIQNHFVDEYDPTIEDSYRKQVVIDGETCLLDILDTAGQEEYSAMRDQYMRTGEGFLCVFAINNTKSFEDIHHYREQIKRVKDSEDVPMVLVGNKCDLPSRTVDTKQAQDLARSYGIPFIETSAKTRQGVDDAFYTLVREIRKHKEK

IC50 (MKN-1 cells; 2 hours compound incubation) [nM]	IC50 (PANC08.13 cells; PANC-08-13, 2 hours compound incubation) [nM]	IC50 (AsPC-1 cells; 2 hours compound incubation) [nM]	IC50 (SW620 cells; SW-620, 2 hours compound incubation) [nM]	Compound	IC50 (KRAS-WT) [nM]	IC50 [1] [nM]	IC50 (KRAS-G12D) [nM]	IC50 (KRAS-G12V) [nM]	IC50 (KRAS-G13D) [nM]	IC50 (MKN-1 cells; [2]) [nM]	IC50 (PANC08.13 cells; PANC-08-13, KRAS-G12D, 2 hours) [nM]	IC50 (AsPC-1 cells; KRAS-G12D, 2 hours) [nM]	IC50 (SW620 cells; SW-620, KRAS-G12V, 2 hours) [nM]
–	–	–	–	CCOc1c(C)cc2[nH]ncc2c1-c1nccc2c1sc1nc(OC[C@@]34CCCN3C[C@H](F)C4)nc(N3CCOC[C@@](C)(O)C3)c12 [Ex-38, (6S)-4-(8-(5-ethoxy-6-methyl-1H-indazol-4-yl)-2-(((2R,7aS)-2-fluorotetrahydro-1H-pyrrolizin-7a(5H)-yl)methoxy)pyrido[4′,3′:4,5]thieno[2,3-d]pyrimidin-4-yl)-6-methyl-1,4-oxazepan-6-ol]	239	36	96.6	186	123	197	122	395	277
–	–	–	–	Cc1cc2[nH]ncc2c(-c2nccc3c2sc2nc(OC[C@@]45CCCN4C[C@H](F)C5)nc(N4CCOC[C@@](C)(O)C4)c23)c1C(F)F [Ex-129, (6S)-4-(8-(5-(di-fluoromethyl)-6-methyl-1H-indazol-4-yl)-2-(((2R,7aS)-2-fluorotetrahydro-1H-pyrrolizin-7a(5H)-yl)methoxy)-pyrido[4′,3′:4,5]thieno[2,3-d]pyr-imidin-4-yl)-6-meth-yl-1,4-oxazepan-6-ol]	165	50	56.2	85	79	241	144	469	211
–	–	–	–	C#Cc1c(C)cc2[nH]ncc2c1-c1nccc2c3c(N4CCOC[C@@](C)(O)C4)nc(OC[C@@]45CCCN4C[C@H](F)C5)nc3n(C)c12 (single isomer, unassigned) [Ex-7]	42.9	129	22.3	30.2	22.9	142	99.9	248	233
–	–	–	–	C=Cc1c(C)cc2[nH]ncc2c1-c1nccc2c1sc1nc(OC[C@@]34CCCN3C[C@H](F)C4)nc(N3CCOC[C@@](C)(O)C3)c12 [Ex-35, (6S)-4-(2-(((2R,7aS)-2-fluorotetrahydro-1H-pyrrolizin-7a(5H)-yl)methoxy)-8-(6-methyl-5-vinyl-1H-indazol-4-yl)pyrido[4′,3′:4,5]thieno[2,3-d]pyrimidin-4-yl)-6-methyl-1,4-oxazepan-6-ol]	66.7	29.2	31.9	73.7	47.1	121	73.5	264	172
–	–	–	–	Cc1cc2[nH]ncc2c(-c2nccc3c4c(N5CCC[C@@](C)(O)C5)nc(OC[C@]5(CN(C)C)CC5(F)F)nc4n(C)c23)c1C(F)(F)F [Ex-6, (3R)-1-(2-(((R)-1-((dimethylamino)methyl)-2,2-difluorocyclopropyl)methoxy)-9-methyl-8-(6-methyl-5-(trifluoromethyl)-1H-indazol-4-yl)-9H-pyrido[4′,3′:4,5]pyrrolo[2,3-d]pyrimidin-4-yl)-3-methylpiperidin-3-ol]	218	104	98.1	128	49	304	188	460	291
–	–	–	–	Cc1cc2[nH]ncc2c(-c2nccc3c4c(N5CCOC[C@@](C)(O)C5)nc(OC[C@]5(CN(C)C)CC5(F)F)nc4n(C)c23)c1C(F)F (single isomer, unassigned) [Ex-19]	85.5	37.4	26.5	67.2	68.3	118	68.2	58.5	214
–	–	–	–	Cc1cc2[nH]ncc2c(-c2nccc3c4c(N5CCOC[C@@](C)(O)C5)nc(OC[C@@]56CCCN5C[C@H](F)C6)nc4n(C)c23)c1C(F)F (single isomer, unassigned) [Ex-10]	97.7	30.1	40.3	54	93.8	200	191	439	337
118	58.4	131	253	C=C(C)c1c(C)cc2[nH]ncc2c1-c1nccc2c1sc1nc(OC[C@@]34CCCN3C[C@H](F)C4)nc(N3CCOC[C@@](C)(O)C3)c12 [Ex-136, (6S)-4-(2-(((2R, 7aS)-2-fluorotetra-hydro-1H-pyrrol-izin-7a(5H)-yl)meth-oxy)-8-(6-methyl-5-(prop-1-en-2-yl)-1H-indazol-4-yl)pyr-ido[4′,3′:4,5]thieno [2,3-d]pyrimidin-4-yl)-6-methyl-1,4-oxazepan-6-ol]	60	39	21.6	40.6	24.8	–	–	–	–
–	–	–	–	Cc1cc2[nH]ncc2c(-c2nccc3c2sc2nc(OC[C@@]45CCCN4C[C@H](F)C5)nc(N4CCOC[C@@](C)(O)C4)c23)c1C(F)(F)F [Ex-126, (6S)-4-(2-(((2R,7aS)-2-fluorotetrahydro-1H-pyrrolizin-7a(5H)-yl)methoxy)-8-(6-methyl-5-(trifluoromethyl)-1H-indazol-4-yl)pyrido[4′,3′:4,5]thieno[2,3-d]pyrimidin-4-yl)-6-methyl-1,4-oxazepan-6-ol]	88.3	30.7	34.9	52.8	58.6	169	85.4	271	320
–	–	–	–	Cc1cc2[nH]ncc2c(-c2nccc3c2sc2nc(OC[C@@]45CCCN4C[C@H](F)C5)nc(N4CCOC[C@@](C)(O)C4)c23)c1OC(F)(F)Cl [Ex-39, (6S)-4-(8-(5-(chlorodifluoromethoxy)-6-methy1-1H-indazol-4-yl)-2-(((2R,7aS)-2-fluorotetrahydro-1H-pyrrolizin-7a(5H)-yl)methoxy)pyri-do[4′,3′:4,5]thi-eno[2,3-d]pyrimidin-4-yl)-6-methyl-1,4-oxazepan-6-ol]	30	9.42	9.23	30.9	20.4	44.2	35.7	118	74.3
–	–	–	–	Cc1cc2[nH]ncc2c(-c2nccc3c4c(N5CCOC[C@@](C)(O)C5)nc(OC[C@@]56CCCN5C[C@H](F)C6)nc4n(C)c23)c1C(F)(F)F (single isomer, unassigned) [Ex-1]	93.4	19.8	41.5	55.6	77.4	222	237	376	429
–	–	–	–	C[C@@]1(O)COCCN(c2nc(OC[C@@]34CCCN3C[C@H](F)C4)nc3sc4c(-c5c(C(F)(F)F)c(Cl)cc6[nH]ncc56)nccc4c23)C1 [Ex-40, (6S)-4-(8-(6-chloro-5-(trifluoromethyl)-1H-indazol-4-yl)-2-(((2R,7aS)-2-fluorotetrahydro-1H-pyrrolizin-7a(5H)-yl)methoxy)pyrido[4′,3′:4,5]thi-eno[2,3-d]pyrimidin-4-yl)-6-methyl-1,4-oxazepan-6-ol]	138	34.4	61.5	83.4	52.4	159	114	294	124
